From patent publication US11535611B2, “Pyrazolo[3,4-B]pyridines and imidazo[1,5-B]pyridazines as PDE1 inhibitors” (H. Lundbeck A/S, priority 2017, dated 2022)

How the values were obtained:
Type in all cases: biochemical
[1] = molecular target: PDE1C (Homo sapiens (Human), UniProt Q14123); assay: PDE1 inhibition assay, PDE1C; settings: for IC50: 15 nM tritium labelled cAMP, 1 hr at room temperature, SPA beads, read-out: PDE1 C, IC50; for inhibition at 10 µM: @ 10 μM compound, read-out: PDE1 C, % inhibition @ 10 μM; for inhibition at 1 µM: @ 1 μM compound, read-out: PDE1 C, % inhibition @ 1 μM
Protocol: (§1) PDE1A, PDE1B and PDE1C assays were performed as follows: the assays were performed in 60 μL samples containing a fixed amount of the PDE1 enzyme (sufficient to convert 20-25% of the cyclic nucleotide substrate), a buffer (50 mM HEPES (4-(2-hydroxyethyl)-1-piperazineethanesulfonic acid) pH 7.6; 10 mM MgCl2; 0.02% Tween20), 0.1 mg/ml BSA (bovine serum albumin), 15 nM tritium labelled cAMP and varying amounts of inhibitors. Reactions were initiated by addition of the cyclic nucleotide substrate, and reactions were allowed to proceed for 1 hr at room temperature before being terminated through mixing with 20 μL (0.2 mg) yttrium silicate SPA beads (PerkinElmer). The beads were allowed to settle for 1 hour in the dark before the plates were counted in a Wallac 1450 Microbeta counter. The measured signals were converted to activity relative to an uninhibited control (100%) and IC50 values were calculated using XIFit (model 205, IDBS).

[2] = molecular target: PDE1A (Homo sapiens (Human), UniProt P54750); assay: PDE1 inhibition assay, PDE1A; settings: for inhibition at 10 µM: @ 10 μM compound; for IC50: 15 nM tritium labelled cAMP, 1 hr at room temperature, SPA beads; for inhibition at 1 µM: @ 1 μM compound
Protocol: as §1

[3] = molecular target: PDE1B (Homo sapiens (Human), UniProt Q01064); assay: PDE1 inhibition assay, PDE1B; settings: for IC50: 15 nM tritium labelled cAMP, 1 hr at room temperature, SPA beads, read-out: PDE1 B, IC50
Protocol: as §1

PDE1B, sequence (Q01064 whole entry): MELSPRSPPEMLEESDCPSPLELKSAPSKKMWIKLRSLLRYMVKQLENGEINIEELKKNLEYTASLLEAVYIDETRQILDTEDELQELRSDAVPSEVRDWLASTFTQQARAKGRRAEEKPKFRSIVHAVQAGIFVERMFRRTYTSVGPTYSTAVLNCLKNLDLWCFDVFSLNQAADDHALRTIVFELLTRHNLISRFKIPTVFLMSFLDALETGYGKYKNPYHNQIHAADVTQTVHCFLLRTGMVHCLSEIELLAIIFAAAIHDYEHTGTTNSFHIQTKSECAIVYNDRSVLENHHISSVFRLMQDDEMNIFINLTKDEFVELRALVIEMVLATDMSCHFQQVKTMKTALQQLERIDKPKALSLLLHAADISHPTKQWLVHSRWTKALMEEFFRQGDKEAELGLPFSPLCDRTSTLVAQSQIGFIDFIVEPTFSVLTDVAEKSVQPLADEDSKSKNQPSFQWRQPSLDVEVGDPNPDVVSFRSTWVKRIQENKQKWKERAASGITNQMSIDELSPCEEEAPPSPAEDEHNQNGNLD
PDE1A, sequence (P54750 whole entry): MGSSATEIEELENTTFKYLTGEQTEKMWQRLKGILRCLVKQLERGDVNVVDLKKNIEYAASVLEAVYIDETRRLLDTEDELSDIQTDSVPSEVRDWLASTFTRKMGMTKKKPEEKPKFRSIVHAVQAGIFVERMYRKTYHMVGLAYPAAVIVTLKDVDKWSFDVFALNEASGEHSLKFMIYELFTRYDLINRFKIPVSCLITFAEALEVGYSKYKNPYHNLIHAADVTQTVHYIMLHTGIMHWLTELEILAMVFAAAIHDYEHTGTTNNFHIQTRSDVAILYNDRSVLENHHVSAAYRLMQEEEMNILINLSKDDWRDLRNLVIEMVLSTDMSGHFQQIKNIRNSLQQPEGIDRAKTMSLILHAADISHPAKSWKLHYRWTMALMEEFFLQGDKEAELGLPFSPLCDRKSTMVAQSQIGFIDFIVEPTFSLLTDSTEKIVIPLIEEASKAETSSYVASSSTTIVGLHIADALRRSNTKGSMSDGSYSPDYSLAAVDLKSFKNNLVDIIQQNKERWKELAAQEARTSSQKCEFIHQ
PDE1C, sequence (Q14123 whole entry): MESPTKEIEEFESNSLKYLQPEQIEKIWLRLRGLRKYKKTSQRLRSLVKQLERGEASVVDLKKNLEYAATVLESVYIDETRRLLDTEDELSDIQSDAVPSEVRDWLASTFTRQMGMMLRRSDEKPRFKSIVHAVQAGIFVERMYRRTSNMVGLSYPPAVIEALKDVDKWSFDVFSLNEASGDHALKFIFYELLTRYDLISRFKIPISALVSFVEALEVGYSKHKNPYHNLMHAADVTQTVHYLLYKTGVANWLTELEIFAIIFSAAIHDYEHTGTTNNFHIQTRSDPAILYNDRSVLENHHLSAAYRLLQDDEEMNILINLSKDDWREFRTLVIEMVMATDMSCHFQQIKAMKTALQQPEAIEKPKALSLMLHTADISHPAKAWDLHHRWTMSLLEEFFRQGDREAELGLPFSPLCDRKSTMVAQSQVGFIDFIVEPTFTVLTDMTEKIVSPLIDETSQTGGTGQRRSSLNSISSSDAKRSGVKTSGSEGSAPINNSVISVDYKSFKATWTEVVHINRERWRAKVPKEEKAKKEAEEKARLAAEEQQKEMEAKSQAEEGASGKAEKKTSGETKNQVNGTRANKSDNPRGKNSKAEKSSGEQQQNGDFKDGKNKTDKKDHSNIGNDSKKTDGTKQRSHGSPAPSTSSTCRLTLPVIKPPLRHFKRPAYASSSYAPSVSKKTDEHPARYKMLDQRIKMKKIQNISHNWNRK

Compound	IC50 [1]	inhibition at 10 µM [2]	IC50 [3]	inhibition at 10 µM [1]	IC50 [2]	inhibition at 10 µM ([3]; @ 10 μM compound, read-out: PDE1 B, % inhibition @ 10 μM)	inhibition at 1 µM [1]	inhibition at 1 µM [2]
COc1ncc(C#N)cc1-c1cc(N[C@@H]2CCOC2)c2c(cnn2C(C)C)n1 [Example 54, 5-[1-isopropyl-7-[[(3R)-tetrahydrofuran-3-yl]amino]pyrazolo[4,3-b]pyridin-5-yl]-6-methoxy-pyridine-3-carbonitrile]	2400 nM	59%	1530 nM	–	–	–	–	–
CCOc1ncc(C#N)cc1-c1cc(N[C@@H]2CCOC2)c2c(cnn2C(C)C)n1 [Example 55, 6-ethoxy-5-[1-isopropyl-7-[[(3R)-tetrahydrofuran-3-yl]amino]pyrazolo[4,3-b]pyridin-5-yl]pyridine-3-carbonitrile]	2500 nM	69%	1380 nM	–	–	–	–	–
CCc1ncccc1-c1cc(N[C@@H]2CCOC2)c2c(cnn2C(C)C)n1 [Example 56, 5-(2-ethyl-3-pyridyl)-1-isopropyl-N-[(3R)-tetrahydrofuran-3-yl]pyrazolo[4,3-b]pyridin-7-amine]	–	51%	1520 nM	59%	–	–	–	–
COc1ccc(Cc2cc(N[C@@H]3CCOC3)c3c(cnn3C(C)C)n2)cc1 [Example 57, 1-isopropyl-5-[(4-methoxyphenyl)methyl]-N-[(3R)-tetrahydrofuran-3-yl]pyrazolo[4,3-b]pyridin-7-amine]	506 nM	–	303 nM	–	874 nM	–	–	–
COCc1ncccc1-c1cc(N[C@@H]2CCOC2)c2c(cnn2C(C)C)n1 [Example 58, 1-isopropyl-5-[2-(methoxymethyl)-3-pyridyl]-N-[(3R)-tetrahydrofuran-3-yl]pyrazolo[4,3-b]pyridin-7-amine]	–	52%	2190 nM	31%	–	–	–	–
CCOc1ncccc1-c1ccc2c(n1)c(C)nn2C(C)C [Example 59, 5-(2-ethoxy-3-pyridyl)-1-isopropyl-3-methyl-pyrazolo[4,3-b]pyridine]	180 nM	–	26 nM	–	52 nM	–	–	–
Cc1cc2c(nc1-c1ccccc1)c(C)nn2C(C)C [Example 60, 1-isopropyl-3,6-dimethyl-5-phenyl-pyrazolo[4,3-b]pyridine]	198 nM	–	122 nM	–	225 nM	–	–	–
COc1ncccc1-c1nc2c(C)nn(C(C)C)c2cc1C [Example 61, 1-isopropyl-5-(2-methoxy-3-pyridyl)-3,6-dimethyl-pyrazolo[4,3-b]pyridine]	236 nM	–	84 nM	–	288 nM	–	–	–
COc1ccccc1-c1nc2c(C)nn(C(C)C)c2cc1C [Example 62, 1-isopropyl-5-(2-methoxyphenyl)-3,6-dimethyl-pyrazolo[4,3-b]pyridine]	568 nM	–	159 nM	–	694 nM	–	–	–
CCOc1ncccc1-c1nc2c(C)nn(C(C)C)c2cc1C [Example 63, 5-(2-ethoxy-3-pyridyl)-1-isopropyl-3,6-dimethyl-pyrazolo[4,3-b]pyridine]	175 nM	–	16 nM	–	86 nM	–	–	–
CCCOc1ncccc1-c1nc2c(C)nn(C(C)C)c2cc1C [Example 64, 1-isopropyl-3,6-dimethyl-5-(2-propoxy-3-pyridyl)pyrazolo[4,3-b]pyridine]	220 nM	–	25 nM	–	118 nM	–	–	–
CCOc1ncccc1-c1cc(NC)c2c(n1)c(C)nn2C(C)C [Example 65, 5-(2-ethoxy-3-pyridyl)-1-isopropyl-N,3-dimethyl-pyrazolo[4,3-b]pyridin-7-amine]	111 nM	–	7 nM	–	50 nM	–	–	–
CCNc1cc(-c2cccnc2OCC)nc2c(C)nn(C(C)C)c12 [Example 66, 5-(2-ethoxy-3-pyridyl)-N-ethyl-1-isopropyl-3-methyl-pyrazolo[4,3-b]pyridin-7-amine]	161 nM	–	5 nM	–	60 nM	–	–	–
CCOc1ncccc1-c1cc(NCC2CC(=O)N(C)C2)c2c(n1)c(C)nn2C(C)C (stereo not drawn) [Example 68, 4-[[[5-(2-ethoxy-3-pyridyl)-1-isopropyl-3-methyl-pyrazolo[4,3-b]pyridin-7-yl]amino]methyl]-1-methyl-pyrrolidin-2-one]	88 nM	–	12 nM	–	53 nM	–	–	–
CCOc1ncccc1-c1cc(N)c2c(n1)c(C)nn2C(C)C [Example 69, 5-(2-ethoxy-3-pyridyl)-1-isopropyl-3-methyl-pyrazolo[4,3-b]pyridin-7-amine]	129 nM	–	13 nM	–	62 nM	–	–	–
CCOc1ncccc1-c1ccc2c(cnn2C(C)C)n1 [Example 70, 5-(2-ethoxy-3-pyridyl)-1-isopropyl-pyrazolo[4,3-b]pyridine]	2170 nM	–	99 nM	–	836 nM	–	–	–
CCOc1ncccc1-c1nc2c(C)nc(C(C)C)n2cc1C [Example 71, 2-(2-ethoxy-3-pyridyl)-6-isopropyl-3,8-dimethyl-imidazo[1,5-a]pyrimidine]	99 nM	–	17 nM	–	74 nM	–	–	–
CCOc1ncccc1-c1ccn2c(C(C)C)nc(C)c2n1 [Example 72, 2-(2-ethoxy-3-pyridyl)-6-isopropyl-8-methyl-imidazo[1,5-a]pyrimidine]	213 nM	–	34 nM	–	96 nM	–	–	–
CCOc1ncccc1-c1ccn2c(C3CCC3)nc(C)c2n1 [Example 73, 6-cyclobutyl-2-(2-ethoxy-3-pyridyl)-8-methyl-imidazo[1,5-a]pyrimidine]	2090 nM	–	296 nM	–	1550 nM	–	–	–
CCOc1ncccc1-c1ccn2c(C3CC3)nc(C)c2n1 [Example 74, 6-cyclopropyl-2-(2-ethoxy-3-pyridyl)-8-methyl-imidazo[1,5-a]pyrimidine]	1180 nM	–	121 nM	–	394 nM	–	–	–
CCOc1ncccc1-c1ccn2c(C3(C)COC3)nc(C)c2n1 [Example 77, 2-(2-ethoxy-3-pyridyl)-8-methyl-6-(3-methyloxetan-3-yl)imidazo[1,5-a]pyrimidine]	730 nM	–	239 nM	–	448 nM	–	–	–
CCOc1ncccc1-c1ccn2c(CC(F)(F)F)nc(C)c2n1 [Example 78, 2-(2-ethoxy-3-pyridyl)-8-methyl-6-(2,2,2-trifluoroethyl)imidazo[1,5-a]pyrimidine]	717 nM	–	207 nM	–	321 nM	–	–	–
CCOc1ncccc1-c1ccn2c(C3COC3)nc(C)c2n1 [Example 79, 2-(2-ethoxy-3-pyridyl)-8-methyl-6-(oxetan-3-yl)imidazo[1,5-a]pyrimidine]	632 nM	–	78 nM	–	406 nM	–	–	–
CCOc1ncccc1-c1ccn2c(C3CCCC3)nc(C)c2n1 [Example 80, 6-cyclopentyl-2-(2-ethoxy-3-pyridyl)-8-methyl-imidazo[1,5-a]pyrimidine]	2280 nM	–	591 nM	–	3230 nM	–	–	–
CCOc1ncccc1-c1ccn2c(C(C)(C)C)nc(C)c2n1 [Example 82, 6-tert-butyl-2-(2-ethoxy-3-pyridyl)-8-methyl-imidazo[1,5-a]pyrimidine]	–	29%	–	28%	–	54%	–	–
CCOc1ncccc1-c1cc(N2CC[C@@H](OC)C2)c2c(cnn2C)n1 [Example 85, 5-(2-ethoxy-3-pyridyl)-7-[(3R)-3-methoxypyrrolidin-1-yl]-1-methyl-pyrazolo[4,3-b]pyridine]	–	–	536 nM	–	–	–	56%	23%
CCOc1ncccc1-c1cc(N[C@@H]2CCC[C@H]2OC)c2c(cnn2C)n1 [Example 86, 5-(2-ethoxy-3-pyridyl)-N-[(1R,2R)-2-methoxycyclopentyl]-1-methyl-pyrazolo[4,3-b]pyridin-7-amine]	–	–	536 nM	–	–	–	20%	22%
CCOc1ncccc1-c1cc(NC2CCC(OC)C2)c2c(cnn2C)n1 (stereo not drawn) [Example 88, 5-(2-ethoxy-3-pyridyl)-N-(3-methoxycyclopentyl)-1-methyl-pyrazolo[4,3-b]pyridin-7-amine]	–	–	311 nM	–	–	–	47%	16%
